Measurements as given in patent US20200230205A1, “COMPOSITIONS AND METHODS FOR TREATING MYELIN DISORDERS” (CASE WESTERN RESERVE UNIVERSITY, priority 2017, published 2020).

Assays:
OPC secreted proteases = assay: Protease array screen of OPC conditioned media; assay type: cell-based, mouse; conditions: OPC CM, 2.5 μM ISP for 4 div vs vehicle
Method: OPCs were cultured on 6-well plates for 4 div with vehicle control or 2.5 μM ISP treatment. Conditioned media was collected from each group and cell-strained before incubation with blot array provided in R & D Systems Protease Array Kit (ARY025). Instructions from kit were followed with overnight incubation of collected media at 4° C. Control and ISP blots were developed together with the same exposure time and pixel intensities of array was assess using ImageJ (NIH).

[1] = system: MOG35-55-induced EAE mice; assay: MOG35-55-induced EAE mouse model, daily intraperitoneal ISP; assay type: in vivo
Source text: For induction of EAE, C57BL6/J female mice at 10-week-old of age were immunized with MOG35-55 together with complete Freund's adjuvant emulsion (Hooke Laboratories, MOG35-55 EAE Induction kit, EK-2110) according to the manufacturers' instruction. Using the EAE Induction Kit result in 98% successful disease induction. All EAE animals were monitored daily and scored using a clinical scale from 0 to 5 (0: no abnormality; 1: limp tail; 2: limp tail and hind legs weakness; 3: limp tail and complete paralysis of hind legs; 4, hind leg and partial front leg paralysis; 5: moribund. Once EAE mice scored for I or 3, they were randomly recruited into treatment group and vehicle group. For treatment group, 5-7 mice were given daily intraperitoneal injections of ISP (20 μg/day), or 5% DMSO in saline, 100 μl) for Vehicle group. Experiments were blinded and animals were scored daily. For ISP Onset: ISP treatment was given at onset of sickness scored by clinical scale. For ISP Peak: ISP treatment was given at peak of sickness scored by clinical scale
LFB staining was performed according to the manufacturer's instruction (#26681, Electron Microscopy Sciences). For spinal cord sections, 20 μm coronal sections were incubated in LFB solution in 56° C. overnight and then rinsed sequentially with 95% alcohol and distilled water. The sections were then in 0.1% lithium carbonate solution and followed dehydration with a series of gradated ethanol, cleared with Histoclear and mounted. A set of serial matched sections were imaged and analyzed. Images (5 to 6 sections/animal) were captured under light microscope. The demyelinated areas (lack of LFB staining) were quantified using ImageJ software. For EAE sections, demyelinated areas were measured and represented as a percentage of total area of spinal cord. For sections of LPC model, lesion volumes were calculated by the lesion area from serial sections throughout the entire lesion based on the equation for volume of cylinder (V=lesion area×length of lesion).
Mice were anesthetized with avertin and perfusion with PBS and 4% paraformaldehyde (PFA). Brain or spinal cord were dissected and post-fixed in 4% PFA overnight at 4° C. and equilibrated in 20% sucrose. 20 μm-thick sections were pretreated with Reveal Decloaker Solution (RV 1000M, Biocare Medical) for antigen retrieval according to the manufacturer's instructions. After blocking, sections were incubated with primary antibodies overnight at 4° C. and followed by appropriate secondary antibodies conjugated with Alexa fluorescence 488 or 594. The following primary antibodies were used: MBP (SMI-99P, Covance, 1:300), NeuF200 (N4142, Sigma, 1:250), CS-56 (C8035, Sigma, 1:250), CAT301 (MAB5284, Millipore, 1:250), versican (AB 1032, Millipore, 1:250), Iba1 (019-19741, WAKO, 1:250), GFAP (MAB360, Millipore, 1:250), Olig2 (AB9610, Millipore, 1:250), CC1 (OP80, Millipore, 1:250). For each staining, at least 3 individual animals/group were examined and images were captured with a Leica DFC500 fluorescence microscope. Staining was quantified using Image J software (US National Instisutes of Health, USA). Fluorescence intensity was calculated as percentages of the mean value of the naïve controls.
For ultrastructural analyses of myelination, anesthetized animals were perfused with 2% glutaraldehyde/4% paraformaldehyde in 0.1 M sodium carcodylate buffer, PH7.4 (Electron Microscopy Sciences). Lesioned areas of the LPC or EAE-induced spinal cords from ISP-treated or control animals were dissected and post-fixed in 1% OsO4 for 2 hrs. Coronal sections ([…]) of spinal cord or brain containing corpus callosum were prepared (Leica, Vibratome), dehydrated, stained with saturated uranyl acetate and embedded in a Poly/Bed812 resin (Polysciences Inc.). The 1 μm-thick sections were cut and stained with toluidine blue, and matched areas were selected for EM analysis. […]

[2] = 41 days following EAE induction

GRKKRRQRRRCDMAEHMERLKANDSLKLSQEYESI [ISP]
protease array signal for ADAMTS, Kallikreins, Cathepsins, MMPs (OPC secreted proteases): increased signal | protease array signal for Cathepsins L and V and MMP-10 (laminin degrading) (OPC secreted proteases): reduced | demyelination baseline (LFB) vs vehicle ([1]; 18 days following EAE induction): not significantly different | GFAP (reactive astrocytes) immunofluorescence [1, 2]: significant decreases | Iba1 (microglia/macrophages) immunofluorescence [1, 2]: significant decreases | time until functional recovery was initially observed ([1]; EAE ISP Onset group, ISP 20 μg/mouse daily i.p., days of ISP administration): 10 to 12 days | clinical score ([1]; EAE ISP Onset group, several animals, after 20-22 days of ISP (~33 days post immunization)): 0.5-1 | clinical score ([1]; EAE ISP Peak group, ISP started at peak of sickness): improved significantly | percentage of CC1+ oligodendrocytes in lesions ([1]; EAE animals, 41 days): significantly enhanced | number of myelinated/remyelinated axons, electron microscopy ([1]; EAE-lesioned spinal cord vs vehicle): increase of myelinated/remyelinated axons | MBP immunostaining ([1]; ISP for 41 days vs control EAE animals): denser | lesion size, LFB myelin staining ([1]; Onset treated animals, spinal cord): especially reduced | Arginase-1 (M2 microglia marker) immunostaining ([1]; spinal cord of EAE mice): increased M2 microglia | iNOS (M microglia marker) immunostaining ([1]; spinal cord of EAE mice): decreased M microglia | MBP expression, western blot ([1]; spinal cord tissue of EAE mice): restoration of MBP expression | CSPG (Cat301, aggrecan) immunostaining ([1]; thoracic spinal cord, 41 days post-induction): markedly decreased
